From paper PMC8746798, “Evaluation of 2-Thioxoimadazolidin-4-one Derivatives as Potent Anti-Cancer Agents through Apoptosis Induction and Antioxidant Activation: In Vitro and In Vivo Approaches” (Molecules, 2021)

What was measured:
[1] = system: P53, PUMA, Caspase 3, 8, 9, Bcl-2, PI3K, AKT genes in HepG2 cells; assay: Gene expression (RT-PCR) of apoptosis-related genes; assay type: cell-based, human; conditions: HepG2, IC50 concentration, 48 h, control = 1
Procedure: The target genes of P53, PUMA, Caspases 3, 8, and 9, Bcl-2, PI3K, and AKT were chosen according to the interactive functional association network of the tested protein set using String bioinformatics database for analysis as shown in Supplementary Figure S1. HepG2 cells were treated for 48 h at 37 °C with the IC50 value of the compound 4 and followed by real-time PCR analysis for control and treated cells of the following genes, P53, PUMA, BCL2, CASP3, CASP8, CASP9, PI3k, and AKT, using the specific primers mentioned in Supplementary Table S3 compared to the control cells. Relative gene expression was calculated utilizing the ΔΔCT equation with normalization to the housekeeping beta-actin gene. Results were shown as a fold change in the mentioned gene expression in the treated versus control cells.
HepG2 cells were treated for 48 h at 37 °C with the IC50 value of the compound 4 and were collected for real-time PCR analysis with the perfect primer pairs (Supplementary, Table 1) of the following eight genes (P53, PUMA, BCL2, CASP3, CASP8, CASP9, PI3k and AKT) compared to the control cells, and for analysis first total RNA was extracted using RNeasy Mini Kit (Qiagen) following the manufacturer protocol of the kits than RNA was assessed for both the quality and quantity of RNA using NanoDrop ND-1000 spec-trophotometer at the absorbance ratio 260/280 nm [NanoDrop Tech., Inc. DE, USA]. Also, Whole RNA quality was examined by 1% agarose gel electrophoresis and afterward cDNA was obtained from one μg RNA using I-Script cDNA synthesis kit (BioRad). qRT-PCR were executed utilizing 10 ng of cDNA and Applied Biosystems Sybr Green master […]
conditions were 5 min [95 ◦C], followed by 45 cycles for 15 s [95 ◦C], for 60 s [58, 60, 62 ◦C] and for 1 min [72 ◦C] using applied Biosystems Step-One qRT-PCR (USA). Relative genes expression was finally calculated utilizing the ΔΔCT equation with normalization to that of the housekeeping beta-actin gene. Results were shown as fold change in gene expres-sion in the treated cells versus that of the control. […]

[2] = system: HepG2 liver cancer cells; assay: MTT assay for cytotoxic screening, HepG2; assay type: cell-based, human; conditions: Homo sapiens, HepG2, 48 h, mean ± SE, n = 3
Procedure: The in vitro anti-cancer activity was assessed using the MTT assay. […] Staurosporine and 5-FU were used as reference drugs. HepG2 cells (1 × 10^4 cells/well, 96-well plate) were maintained in DMEM media supplemented with 2mML-glutamine (Lonza, Verviers, Belgium) and 10% FBS (Sigma, St. Louis, MO, USA), 1% Penicillin/Streptomycin (Lonza, Verviers, Belgium) according to the routine culture work. Cultures were incubated for 48 h with serial dilutions (0.01, 0.1, 1, 10, 100 µM) of the tested compounds. Finally, cell viability was determined by measuring the absorbance λ570 nm according to the following formula: % of cell viability = (A sapmple/A control) ×100, then IC50 calculation was calculated using GraphPad Prism 7 software.

[3] = system: THLE-2 normal liver cells; assay: MTT assay, normal liver cells; assay type: cell-based; conditions: Homo sapiens, THLE-2, mean ± SE, n = 3
[4] = Histopathological examination of liver and kidney (H&E); assay type: in vivo, mice
Procedure: We randomly divided 50 mice into groups 5 groups (10 mice in each group): normal control (I) (mice injected intraperitoneally with the same volume of solvent for 14 consecutive days); group II, a group of normal mice treated with compound 4 (mice injected intraperitoneally with newly produced compound 4 at a dose of 6 mg/kg per day for 14 days); group III, solid tumor group (mice were implanted with solid tumor); group IV, group were treated with 5-FU (after 10 days of tumor implantation, mice were treated with 6 mg/kg only once); and group V, solid tumor group were treated with compound 4 (after 10 days of tumor implantation, mice were treated with 6 mg/kg only once). after one day of the previous treatment, 10 mice from each group were sacrificed and tumor weight, tumor volume (length and width of solid femoral tumor), blood and liver samples were obtained from each group. A portion of each blood sample taken was used for complete blood count (CBC) and the rest was centrifuged to obtain the serum. Serum was used for biochemical parameter estimation. The livers were rapidly dissected, washed with isotonic saline, and dried. The experiment design is summarized in Supplementary Figure S3.
Complete blood counts (CBCs) were counted using an AbbottCELLDYN®1800 Automated Hematology Analyzer (Abbott Park, IL, USA) equipped with an off-the-shelf kit (Abbott Laboratories, Abbott Park, IL, USA). For microscopic histopathological examination, tumor and kidney slices were maintained in 10% formalin, dehydrated with graduated alcohol, embedded in paraffin sections, H&E stained, and hematoxylin stained.
Specimens from mice liver cells were fixed in 10% formalin saline. Then, the samples were dehydrated with ascending series of ethanol and embedded in paraffin. A […] thick section was stained with hematoxylin and eosin and examined under a light microscope.

[5] = Median lethal dose (LD50); conditions: mouse, in vivo, ip; mice, I.p., 24 h mortality
Procedure: Adopting the procedure described by Finney, different known concentrations of the imidamide 4 were intraperitoneally injected into a group of eight mice (weight on average 21.1 g). […] This assay was carried out evaluate its dose-safety limit and select the dose to be used in the treatment.

O=C1NC(=S)N(c2ccc(O)cc2)/C1=C/c1cccs1 [Compound 4, (E)-1-(4-Hydroxyphenyl)-5-(thiophen-2-ylmethylene)-2-thioxoimidazolidin-4-one]
AKT gene expression, fold change ([1]; reduced): 0.38 fold
BCL-2 gene expression, fold change ([1]; reduced): 0.25 fold
PI3K gene expression, fold change ([1]; reduced): 0.497 fold
Caspase 3 gene expression, fold change ([1]; upregulation): 10.71 fold
Caspase 8 gene expression, fold change ([1]; upregulation): 1.98 fold
Caspase 9 gene expression, fold change ([1]; upregulation): 7.14 fold
P53 gene expression, fold change ([1]; upregulation): 7.61 fold
PUMA gene expression, fold change ([1]; upregulation): 2.31 fold
IC50 [2]: 0.017 ± 0.004 µM
IC50 [3]: 56.6 ± 1.5 µM
kidney histopathology ([4]; SEC-bearing mice treated): almost normal, intact renal corpuscles and tubules
liver histopathology ([4]; SEC-bearing mice treated): liver lobules looking normal
liver histopathology ([4]; normal mice treated): normal-looking liver lobules; some hepatocytes showed a hydropic degeneration and a balloon degeneration
LD50 at 24 h [5]: 6 mg/kg
